From US11801249B1, “Broad-spectrum antitrypanosomal compounds” (KING FAISAL UNIVERSITY, priority 2023, dated 2023)
≈ marks a conversion by molar mass, not a printed value.

Key:
Test in all cases: Antitrypanosomal assay (ATP-based luciferase viability)
Type in all cases: cell-based
[1] = system: T. b. brucei (Tbb) GuTat3.1; settings: Trypanosoma brucei, TbbGUTat3.1, mean ± SD; for IC50: 72 h, three days; for inhibition at 0.25 µg/mL: 0.25 μg/ml; for inhibition at 0.25 µg/mL / inhibition at 25 µg/mL: read-out: Inhibition rate; for inhibition at 25 µg/mL: 25 μg/ml
Text: (§1) Six trypanosome species namely T. b. brucei (Tbb) GuTat3.1, T. b. rhodesiense (Tbr) IL1501, T. b. gambiense (Tbg) IL1922, T. evansi (Tev) Tansui, T. equiperdum (Teq) IVM-t1 and T. congolense (Tc) IL3000 were cultivated using HMI-9 medium and used in the study. Following the procedures reported in Suganuma et al. (2014): “Establishment of ATP-based luciferase viability assay in 96-well plate for Trypanosoma congolense”, J Vet Med Sci 76, 1437-41, the trypanocidal activity of the two compounds discussed herein was assessed at 25 μg/ml or […]. […] The IC50 of the compounds against six trypanosome species was determined using serial dilution in a 96-well plate (Optical bottom plate, ThermoFisher SCIENTIFIC, MA, USA). After three days, 25 μL of CellTiter-GIo Luminescent cell viability reagent (Promega Corporation, WI, USA) was aliquoted into each well and luminosity was measured with a GloMax plate reader (Promega Corporation, WI, USA).
(§2) At first, the compounds were assayed at high and low concentrations of […], respectively (Table 3).
(§3) Given the promising initial antitrypanosomal action of the compounds, the IC50 was measured in the presence of several concentrations of the compound.

[2] = system: T. b. gambiense (Tbg) IL1922; settings: Trypanosoma brucei, mean ± SD; for IC50: 72 h, TbgIL1922, three days; for inhibition at 0.25 µg/mL: TbgIL1922, 0.25 μg/ml; for inhibition at 0.25 µg/mL / inhibition at 25 µg/mL: read-out: Inhibition rate; for inhibition at 25 µg/mL: TbgIL1922, 25 μg/ml
Text: as §1, §2, §3

[3] = system: T. b. rhodesiense (Tbr) IL1501; settings: Trypanosoma brucei, mean ± SD; for IC50: 72 h, TbrIL1501, three days; for inhibition at 0.25 µg/mL: TbrIL1501, 0.25 μg/ml; for inhibition at 0.25 µg/mL / inhibition at 25 µg/mL: read-out: Inhibition rate; for inhibition at 25 µg/mL: TbrIL1501, 25 μg/ml
Text: as §1, §2, §3

[4] = system: T. congolense (Tc) IL3000; settings: Trypanosoma congolense, TcIL3000, mean ± SD; for IC50: 72 h, three days; for inhibition at 0.25 µg/mL: 0.25 μg/ml; for inhibition at 0.25 µg/mL / inhibition at 25 µg/mL: read-out: Inhibition rate; for inhibition at 25 µg/mL: 25 μg/ml
Text: as §1, §2, §3

[5] = system: T. equiperdum (Teq) IVM-t1; settings: Trypanosoma equiperdum, mean ± SD; for inhibition at 0.25 µg/mL: 0.25 μg/ml; for inhibition at 0.25 µg/mL / inhibition at 25 µg/mL: read-out: Inhibition rate; for inhibition at 25 µg/mL: 25 μg/ml; for IC50: 72 h, three days
Text: as §1, §2, §3

T. evansi (Tev) Tansui = settings: Trypanosoma evansi, mean ± SD; for inhibition at 0.25 µg/mL: 0.25 μg/ml; for inhibition at 0.25 µg/mL / inhibition at 25 µg/mL: read-out: Inhibition rate; for inhibition at 25 µg/mL: 25 μg/ml; for IC50: 72 h, three days
Text: as §1, §2, §3

Row | Structure (SMILES) | IC50 [1] | inhibition at 0.25 µg/mL [1] | inhibition at 25 µg/mL [1] | IC50 [2] | inhibition at 0.25 µg/mL [2] | inhibition at 25 µg/mL [2] | IC50 [3] | inhibition at 0.25 µg/mL [3] | inhibition at 25 µg/mL [3] | IC50 [4] | inhibition at 0.25 µg/mL [4] | inhibition at 25 µg/mL [4] | inhibition at 0.25 µg/mL [5] | inhibition at 25 µg/mL [5] | IC50 [5] | inhibition at 0.25 µg/mL (T. evansi (Tev) Tansui) | inhibition at 25 µg/mL (T. evansi (Tev) Tansui) | IC50 (T. evansi (Tev) Tansui)
1 | Fc1ccc(-c2cn[nH]c2C2CCCN(c3ncnc4[nH]ccc34)C2)cc1 (stereo not drawn) [Compound 1, 4-{3-[4-(4-fluorophenyl)-1H-pyrazol-5-yl]piperidin-1-yl}-7H-pyrrolo[2,3-d]pyrimidine] | 3.53 ± 0.67 µg/mL (≈ 9.74 µM) | 13.2 ± 4.07% | 99.38 ± 0.02% | 3.51 ± 0.9 µg/mL (≈ 9.69 µM) | 2.82 ± 3.98% | 99.01 ± 0.01% | 5.56 ± 0.13 µg/mL (≈ 15.3 µM) | 15.9 ± 11.1% | 99.34 ± 0.01% | 2.65 ± 0.47 µg/mL (≈ 7.31 µM) | 8.85 ± 9.99% | 98.64 ± 0.16% | 4.26 ± 6.01% | 99.22 ± 0.01% | 10.3 ± 0.36 µg/mL (≈ 28.4 µM) | 9.14 ± 6.02% | 99.1 ± 0.46% | 13.3 ± 3.36 µg/mL (≈ 36.8 µM)
2 | Fc1ccc(-c2cn[nH]c2C2CCCN(c3ncnc4[nH]cnc34)C2)cc1 (stereo not drawn) [Compound 2, 6-{3-[4-(4-fluorophenyl)-1H-pyrazol-5-yl]piperidin-1-yl}-9H-purine] | 3.66 ± 0.77 µg/mL (≈ 10.1 µM) | 13.9 ± 3.11% | 99.03 ± 0.02% | 3.11 ± 0.88 µg/mL (≈ 8.56 µM) | 1.82 ± 1.45% | 98.21 ± 0.02% | 4.65 ± 0.25 µg/mL (≈ 12.8 µM) | 11.3 ± 6.63% | 98.64 ± 0.02% | 2.77 ± 0.57 µg/mL (≈ 7.62 µM) | 8.09 ± 6.96% | 98.01 ± 0.2% | 5.2 ± 4.11% | 98.62 ± 0.05% | 9.12 ± 0.8 µg/mL (≈ 25.1 µM) | 6.14 ± 7.12% | 98.7 ± 0.04% | 9.26 ± 1.2 µg/mL (≈ 25.5 µM)
